According to the CheMixHub viscosity set:
Values joined by “and” are separate entries in the source; they are usually repeats but may differ in a detail not shown here. Identical values can stand only once.

Assay: xn = mol fraction of the nth substance listed

NCC(=O)O + O
viscosity
Conditions	101 kPa	101.33 kPa
293.15 K, x1 = 0.0194	1.181 mPa·s	–
293.15 K, x1 = 0.0294	1.272 mPa·s	–
293.15 K, x1 = 0.036	1.332 mPa·s	–
298.15 K, x1 = 0.0002174	0.8944 mPa·s and 0.8944 mPa·s	–
298.15 K, x1 = 0.0004	0.894 mPa·s	–
298.15 K, x1 = 0.0007	0.8972 mPa·s	–
298.15 K, x1 = 0.0009	0.8942 mPa·s	–
298.15 K, x1 = 0.0009413	0.9111 mPa·s and 0.9111 mPa·s	–
298.15 K, x1 = 0.00135	0.8968 mPa·s	–
298.15 K, x1 = 0.0018	0.8995 mPa·s	–
298.15 K, x1 = 0.002695	0.9053 mPa·s	–
298.15 K, x1 = 0.003657	0.9319 mPa·s and 0.9319 mPa·s	–
298.15 K, x1 = 0.005496	0.932 mPa·s and 0.932 mPa·s	–
298.15 K, x1 = 0.008976	0.9754 mPa·s and 0.9754 mPa·s	–
298.15 K, x1 = 0.0108	0.9757 mPa·s and 0.9757 mPa·s	–
298.15 K, x1 = 0.01215	0.9853 mPa·s and 0.9853 mPa·s	–
298.15 K, x1 = 0.01456	0.986 mPa·s and 0.986 mPa·s	–
303.15 K, x1 = 0.0003	0.803 mPa·s	–
303.15 K, x1 = 0.0004	0.8014 mPa·s	–
303.15 K, x1 = 0.0007	0.8046 mPa·s	–
303.15 K, x1 = 0.0009	0.801 mPa·s	–
303.15 K, x1 = 0.00135	0.8035 mPa·s	–
303.15 K, x1 = 0.0018	0.8126 mPa·s	–
303.15 K, x1 = 0.002	0.816 mPa·s	–
303.15 K, x1 = 0.0022	0.8155 mPa·s	–
303.15 K, x1 = 0.002695	0.8117 mPa·s	–
303.15 K, x1 = 0.0029	0.8217 mPa·s	–
303.15 K, x1 = 0.003592	0.8207 mPa·s	–
303.15 K, x1 = 0.0063	0.8489 mPa·s	–
303.15 K, x1 = 0.0107	0.8659 mPa·s	–
303.15 K, x1 = 0.01246	0.8788 mPa·s	–
303.15 K, x1 = 0.0129	0.8994 mPa·s	–
303.15 K, x1 = 0.0194	0.9492 mPa·s	–
303.15 K, x1 = 0.0294	1.026 mPa·s	–
303.15 K, x1 = 0.036	1.076 mPa·s	–
308.15 K, x1 = 0.00135	0.7251 mPa·s	–
308.15 K, x1 = 0.0018	0.7276 mPa·s and 0.7355 mPa·s	0.7365 mPa·s
308.15 K, x1 = 0.0022	0.7378 mPa·s	–
308.15 K, x1 = 0.0025	0.7407 mPa·s	–
308.15 K, x1 = 0.0029	0.7439 mPa·s	–
308.15 K, x1 = 0.003657	0.7609 mPa·s and 0.7609 mPa·s	–
308.15 K, x1 = 0.005496	0.7659 mPa·s and 0.7659 mPa·s	–
308.15 K, x1 = 0.007374	0.7773 mPa·s and 0.7773 mPa·s	–
308.15 K, x1 = 0.0108	0.8059 mPa·s and 0.8059 mPa·s	–
308.15 K, x1 = 0.01215	0.806 mPa·s and 0.806 mPa·s	–
308.15 K, x1 = 0.01456	0.8089 mPa·s and 0.8089 mPa·s	–
313.15 K, x1 = 0.001	0.664 mPa·s and 0.6667 mPa·s	–
313.15 K, x1 = 0.00135	0.6585 mPa·s	–
313.15 K, x1 = 0.002	0.667 mPa·s	–
313.15 K, x1 = 0.0022	0.6712 mPa·s	–
313.15 K, x1 = 0.0025	0.6739 mPa·s	–
313.15 K, x1 = 0.005375	0.6819 mPa·s	–
313.15 K, x1 = 0.0129	0.727 mPa·s	–
313.15 K, x1 = 0.0194	0.7628 mPa·s	–
313.15 K, x1 = 0.0294	0.8179 mPa·s	–
313.15 K, x1 = 0.036	0.8542 mPa·s	–
318.15 K, x1 = 0.0002174	0.6164 mPa·s and 0.6164 mPa·s	–
318.15 K, x1 = 0.0009	0.6007 mPa·s	–
318.15 K, x1 = 0.0018	0.6052 mPa·s	–
318.15 K, x1 = 0.001865	0.6321 mPa·s	–
318.15 K, x1 = 0.002245	0.6076 mPa·s	–
318.15 K, x1 = 0.002695	0.6099 mPa·s	–
318.15 K, x1 = 0.005496	0.6417 mPa·s	–
318.15 K, x1 = 0.007374	0.6579 mPa·s and 0.6579 mPa·s	–
318.15 K, x1 = 0.008976	0.6725 mPa·s and 0.6725 mPa·s	–
318.15 K, x1 = 0.0108	0.6756 mPa·s and 0.6756 mPa·s	–
318.15 K, x1 = 0.01215	0.6757 mPa·s and 0.6757 mPa·s	–
318.15 K, x1 = 0.01456	0.6821 mPa·s and 0.6821 mPa·s	–
323.15 K, x1 = 0.0003	0.5508 mPa·s	–
323.15 K, x1 = 0.002	0.5589 mPa·s	–
323.15 K, x1 = 0.008932	0.5878 mPa·s	–
323.15 K, x1 = 0.01246	0.6035 mPa·s	–
323.15 K, x1 = 0.0194	0.6412 mPa·s	–
323.15 K, x1 = 0.0294	0.6885 mPa·s	–
323.15 K, x1 = 0.036	0.7197 mPa·s	–

[Li+].[OH-] + O
viscosity [mPa·s], 101 kPa
Conditions	x1 = 0.0089	x1 = 0.02284	x1 = 0.0263	x1 = 0.0385	x1 = 0.0513	x1 = 0.075	x1 = 0.0776	x1 = 0.08062
298.15 K	–	1.245	–	1.602	–	–	–	3.29
308.15 K	–	0.996	–	1.261	–	–	–	2.467
323.15 K	0.609	0.748	0.778	0.931	1.114	1.596	1.66	1.743

C=C(C)C(=O)O + O=C1CCCCC1
viscosity [mPa·s], 101 kPa
Conditions	x2 = 0.1	x2 = 0.2	x2 = 0.3	x2 = 0.4	x2 = 0.5	x2 = 0.5999	x2 = 0.7	x2 = 0.8	x2 = 0.9
298.15 K	1.369	1.528	1.659	1.809	1.901	1.949	1.999	2.045	2.037
308.15 K	1.159	1.281	1.389	1.508	1.583	1.616	1.651	1.683	1.684
318.15 K	0.999	1.101	1.183	1.275	1.33	1.359	1.395	1.424	1.422

O=[N+]([O-])c1ccccc1 + O=C1CCCCC1
Conditions	viscosity [mPa·s]
298.15 K, 101.3 kPa, x2 = 0.1946	1.785

CCOCCOCCO + O=C1CCCN1
298.15 K, 101 kPa
Conditions	viscosity [mPa·s]
x1 = 0.0021	14.17
x1 = 0.004	14.1
x1 = 0.0086	14
x1 = 0.0117	13.9
x1 = 0.0212	13.57
x1 = 0.0348	13.2
x1 = 0.0525	12.63
x1 = 0.0788	12.03
x1 = 0.108	11.37
x1 = 0.1478	10.61
x1 = 0.1914	9.859
x1 = 0.2318	9.217
x1 = 0.2798	8.602
x1 = 0.3222	8.116
x1 = 0.3673	7.637
x1 = 0.4326	7.009
x1 = 0.4635	6.788
x1 = 0.5199	6.331
x1 = 0.5639	6.038
x1 = 0.6088	5.76
x1 = 0.6756	5.37
x1 = 0.7363	5.074
x1 = 0.7879	4.842
x1 = 0.8388	4.665
x1 = 0.8795	4.494
x1 = 0.9249	4.308
x1 = 0.9572	4.175
x1 = 0.977	4.003
x2 = 0.0069	3.885

ClC(Cl)=C(Cl)Cl + O=[N+]([O-])c1ccccc1
303.15 K, 101 kPa
Conditions	viscosity [mPa·s]
x1 = 0.1516	1.446
x1 = 0.2128	1.376
x1 = 0.2966	1.288
x1 = 0.3642	1.221
x1 = 0.4582	1.144
x1 = 0.5496	1.074
x1 = 0.6451	1.012
x1 = 0.7624	0.941
x1 = 0.8428	0.896
x1 = 0.9206	0.856
